Data published in patent US11241436B2, “Autophagy inducers for treatment of CNS conditions” (Northwestern University, priority 2017, dated 2022).

Assays:
[1] = system: Hela cells; experiment: Western blot detection of LC3 and p62 in Hela cells; type: cell-based
Protocol: Western blot analyses. Cell or mouse muscle and brain extracts were prepared in lysis buffer containing 50 mM Tris (pH 7.4), 150 mM NaCl, 1 mM EDTA, 1% Triton X-100, halt proteinase inhibitor cocktail (ThermoFisher Scientific) and halt phosphatase inhibitor cocktail (ThermoFisher Scientific), and subjected to western blot analysis with anti-LC3 (Novus Biologicals, NB100-2220), anti-SQSTM 1 (Abnova, H00008878-M01), anti-Af342 (Invitrogen; 700254), anti-APP (Biolegend; 803001), HRP-conjugated GFP antibody (Santa Cruz Biotechnology, sc9996), anti-HA (Cell Signaling Technology, C29F4), anti-ATG7 (Sigma Aldrich; A2856), anti-LDLR (Abeam, ab52818), anti-LRP 1 (Abeam, ab92544), and anti-ACTB/f3-actin-HRP (Santa Cruz Biotechnology, sc47778 HRP) antibodies. The band intensity was analyzed using the ImageJ software.

[2] = system: GFP-LC3 transgenic mice; experiment: GFP-LC3 puncta in tissues of GFP-LC3 transgenic mice; type: in vivo, mouse; conditions: for numbers of GFP-LC3 puncta (autophagosomes): mouse brain; for number of GFP-LC3 puncta (autophagosomes): brain frontal cortex, heart, liver and muscle
Description: Results represent mean±s.d. Scale bar, 25 μm. N>100 cells or N2::4 mice.
Scale bar, 20 μm. Results represent mean±s.d. N≥4 mice.
Results represent mean±s.e.m. Statistics compare each value to the one with DMSO treatment. *, P<0.05; **, P<0.01; ***, P<0.001, t test. Scale bar: 20 μm.
To test this hypothesis, it was confirmed that Rg2 induces autophagy in vivo, by injecting Rg2 intraperitoneally (i.p.) into transgenic mice globally expressing GFP-LC3. […] Furthermore, in vivo autophagy induction by Rg2 via GFP-LC3 puncta assays in both muscle and brain was examined. […] Thus, the majority of Rg2 is not bound by plasma proteins and is freely available. Taken together, Rg2 was identified as a new in vivo autophagy inducer in vivo.
Autophagy analyses. For assessment of autophagy in vivo, 8-week old male WT and Becn 1FA/FA mice crossed to GFP-LC3 mice were exercised for 90 minutes, or starved for 48 h, and then anaesthetized by isoflurane and perfused with 4% PFA Brain and muscle samples were fixed in 4% PFA overnight, 15% sucrose for 4 h and 30% sucrose overnight before frozen sections were prepared. The number of GFP-LC3 puncta per unit area of tissue was quantified by fluorescence microscopy. Autophagy in vivo was also analyzed by western blot analysis of brain tissue extracts with antibodies against LC3 and p62/SQSTM1 (see below for details).

[3] = system: CB1R signaling; experiment: CB1R signaling in brain (phosphorylation of MEK and JNK) after chronic WIN; type: in vivo, mouse; conditions: repeated WIN dosage 14 d, then acute WIN 1 h
Protocol: WT mice were treated with either daily WIN or vehicle for 14 d, and then subject to an acute dosage of WIN 1 h prior to collection of brain samples.
To investigate whether restoration of CB1R signaling underlies the behavioral regulation by autophagy activation, the level and functionality of CB1R in mouse brain after co-administration of chronic cannabinoids and autophagy inducers were analyzed. […] To determine whether the increased level of CB1R represents CB1R re-sensitization in the brain, the agonist-induced phosphorylation of signaling kinases downstream of CB1R after chronic WIN exposure were analyzed.

[4] = system: Hela cells stably expressing GFP-LC3; experiment: GFP-LC3 puncta in Hela cells stably expressing GFP-LC3, with or without bafilomycin A1; type: cell-based; conditions: for numbers of GFP-LC3 puncta (autophagosomes): Hela cells, normal medium, compared with starvation; for accumulation of GFP-LC3 puncta, LC3-II and p62 (autophagic flux): co-treated with lysosomal inhibitor bafilomycin A1, compared to normal conditions
Description: Results represent mean±s.e.m. Statistics are comparing the indicated value with or without BafA 1 to the one under the normal condition.
Accordingly, an important translational question is how to reduce Beclin 2 activity to maintain CB sensitivity and prevent drug tolerance induced by repeated cannabinoid exposure. To avoid the technical difficulty and risk of directly deleting Beclin 2 in vivo (such as injecting shRNAs or CRISPR/Cas9 constructs), which may disrupt Beclin 2-regulated autophagy, a novel and more convenient strategy to achieve the same goal via modulating the Beclin 2 interactome was developed and tested, which will not affect the essential autophagy function of Beclin 2 (FIG. 6A). Beclin 2 is present in two distinct protein complex pools, the Beclin 2-class Ill phosphatidylinositol 3-kinase complex for autophagy, and the Beclin 2-GASP1-GPCR complex in which Beclin 2-GASP1 binding is required for GPCR degradation. Thus, it was hypothesized that Beclin 2 is a limiting factor that regulates the balance between the two lysosomal degradation pathways, and that competitive recruitment of Beclin 2 to the autophagy machinery by activating autophagy prevents it from functioning in CB1R downregulation and thus restores CB1R functionality and reverses drug tolerance. To test this hypothesis, whether autophagy activation by brain-penetrable inducers inhibits the Beclin 2-GASP1 interaction was first examined. […] To determine autophagy activation by the two compounds, several markers of autophagy induction were analyzed, including formation of autophagosomes in cells and transgenic mice expressing GFP-tagged LC3 (an autophagosome marker), degradation of p62 (an autophagy substrate protein), and conversion of LC3 from the non-lipidated form (LC3-1) to the autophagosome-associated lipidated form (LC3-11). […]
To determine autophagy activation by the 2 compounds ML246 and Rg2, several markers of autophagy induction were analyzed, including formation of autophagosomes in cells and transgenic mice expressing GFP-tagged MAP1LC3/LC3 (microtubule-associated protein 1 light chain 3; an autophagosome marker), degradation of SQSTM1/p62 (sequestosome 1; an autophagy receptor and substrate protein), and conversion of LC3 from the non-lipidated form (LC3-I) to the phagophore- and autophagosome-associated lipidated form (LC3-II). […]

Structure (SMILES)	levels of p62 (SQSTM1) [1]	numbers of GFP-LC3 puncta (autophagosomes) [2]	CB1R (CNR1) signaling: phosphorylation of MEK and JNK [3]	numbers of GFP-LC3 puncta (autophagosomes) [4]	accumulation of GFP-LC3 puncta, LC3-II and p62 (autophagic flux) [4]	number of GFP-LC3 puncta (autophagosomes) ([2]; 10 mg/kg i.p.)	number of GFP-LC3 puncta (autophagosomes) ([2]; 20 mg/kg i.p.)	duration of autophagy activity ([2]; brain)	time of peak of autophagy activity ([2]; brain)	time of decline of autophagy to the basal level ([2]; muscle)	time of peak of induced autophagy ([2]; muscle)
N=c1c2c(-c3ccccc3)c(-c3ccccc3)n(Cc3ccccc3)c2ncn1[C@H]1CC[C@H](O)CC1 [ML246]	decreased	markedly increased	rescued	markedly increased	more accumulation	–	–	–	–	–	–
CC(C)=CCC[C@](C)(O)[C@H]1CC[C@]2(C)[C@@H]1[C@H](O)C[C@@H]1[C@@]3(C)CC[C@H](O)C(C)(C)[C@@H]3[C@@H](O[C@@H]3O[C@H](CO)[C@@H](O)[C@H](O)[C@H]3O[C@@H]3O[C@@H](C)[C@H](O)[C@@H](O)[C@H]3O)C[C@]12C [Rg2, ginsenoside Rg2]	decreased	markedly increased	rescued	markedly increased	more accumulation	significantly increases	significantly increases	at least 24 h	4 h	8 to 16 h	4 h
